Experimental data: patent publication US20240269151A1, “NASAL SLEEP FORMULATION” (CS MEDICA A/S, priority 2021, published 2024)

Assay: Comparison of nasal sleep compositions formulated with type A or type B crystalline CBD
Assay type: in vivo
Conditions: nasal sleep compositions differing only in the crystalline CBD used
Method: Two nasal sleep compositions are prepared as disclosed herein, such as according to Example 1, 5 and/or 7, the only difference being that the crystalline CBD used in the formulation is either of type A (needle-like crystals; FIG. 1) or type B (bunch/cluster-like; FIG. 2).
Type A crystalline CBD is sourced from Enecta, while type B CBD is sourced from Pharma Hemp. Further details can e.g. be found in the first aspect of the invention, such as Table 1.

With C=C(C)[C@@H]1CCC(C)=C[C@H]1c1c(O)cc(CCCCC)cc1O [type A CBD, Cannabidiol] the “Activity/potency of type A CBD versus type B CBD” value was “significantly more active than type B CBD” and the “Activity/potency of type A CBD versus type B CBD” value (listed as CBD with a needle-like crystal structure) was “significantly more potent than CBD with a different crystal structure”.
